Results taken from ChEMBL document CHEMBL5154672, “Design and synthesis of HDAC inhibitors to enhance the therapeutic effect of diffuse large B-cell lymphoma by improving metabolic stability and pharmacokinetic characteristics” (Eur J Med Chem, 2022).
Active and inactive are the calls of the source. No cut-off for these calls is given here.

Tests used:
Histone deacetylase 2 [1] = target: T1, Histone deacetylase 2 (Homo sapiens, UniProt Q92769); experiment: Inhibition of HDAC2 in human TMD8 cells assessed as histone H3 acetylation after 24 hrs by Western blot analysis; type: cell-based; conditions: dose 2.5-10 µM, DDE = dose-dependent effect
T1 sequence (Q92769 whole entry): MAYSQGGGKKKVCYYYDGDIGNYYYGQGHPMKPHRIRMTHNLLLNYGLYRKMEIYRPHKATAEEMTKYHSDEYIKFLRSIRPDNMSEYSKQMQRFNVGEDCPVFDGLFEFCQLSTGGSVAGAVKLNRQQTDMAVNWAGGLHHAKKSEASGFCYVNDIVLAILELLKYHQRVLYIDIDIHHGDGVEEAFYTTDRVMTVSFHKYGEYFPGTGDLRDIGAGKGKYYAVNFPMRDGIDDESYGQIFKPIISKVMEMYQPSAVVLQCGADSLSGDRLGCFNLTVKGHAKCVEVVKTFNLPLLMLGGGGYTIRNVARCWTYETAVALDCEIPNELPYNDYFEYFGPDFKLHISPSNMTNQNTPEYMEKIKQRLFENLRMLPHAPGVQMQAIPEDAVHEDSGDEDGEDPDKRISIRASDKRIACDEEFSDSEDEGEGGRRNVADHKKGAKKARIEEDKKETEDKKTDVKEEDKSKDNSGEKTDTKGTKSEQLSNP

[2] = target: Histone deacetylase 11 (Homo sapiens) (UniProt Q96DB2); experiment: Inhibition of HDAC11 (unknown origin) assessed as remaining activity using (Boc-(Trifluoroacetyl) Lysine-AMC) fluorogenic peptide as substrate preincubated for 10 mins followed by substrate addition for 30 mins in presence of ATP by fluoroscence assay relative to control; conditions: time 40.0 min
Histone deacetylase 11 (Homo sapiens), sequence (Q96DB2 whole entry): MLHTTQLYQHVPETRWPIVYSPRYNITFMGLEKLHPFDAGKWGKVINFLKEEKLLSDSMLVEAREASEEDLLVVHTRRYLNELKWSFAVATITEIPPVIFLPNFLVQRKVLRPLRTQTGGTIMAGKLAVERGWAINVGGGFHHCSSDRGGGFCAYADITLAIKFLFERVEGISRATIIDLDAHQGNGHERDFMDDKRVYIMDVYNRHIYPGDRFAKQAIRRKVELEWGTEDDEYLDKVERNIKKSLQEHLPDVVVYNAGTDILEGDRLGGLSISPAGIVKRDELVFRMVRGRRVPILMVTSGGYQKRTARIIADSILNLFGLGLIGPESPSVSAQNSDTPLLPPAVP

TMD8 [3] = experiment: Induction of apoptosis in human TMD8 cells assessed as cleavage of inactive caspase-3 at 2.5 to 10 uM after 24 hrs by Western blot analysis; type: functional, cell-based; conditions: dose 2.5-10 µM
[4] = target: Histone deacetylase 4 (Homo sapiens) (UniProt P56524); experiment: Inhibition of HDAC4 (unknown origin) assessed as remaining enzyme activity at 1 uM using Boc-(Trifluoroacetyl) Lysine-AMC fluorogenic peptide as substrate preincubated for 10 mins followed by substrate addition for 30 mins in presence of ATP by fluoroscence based assay relative to control; conditions: time 40.0 min
Histone deacetylase 4 (Homo sapiens), sequence (P56524 whole entry): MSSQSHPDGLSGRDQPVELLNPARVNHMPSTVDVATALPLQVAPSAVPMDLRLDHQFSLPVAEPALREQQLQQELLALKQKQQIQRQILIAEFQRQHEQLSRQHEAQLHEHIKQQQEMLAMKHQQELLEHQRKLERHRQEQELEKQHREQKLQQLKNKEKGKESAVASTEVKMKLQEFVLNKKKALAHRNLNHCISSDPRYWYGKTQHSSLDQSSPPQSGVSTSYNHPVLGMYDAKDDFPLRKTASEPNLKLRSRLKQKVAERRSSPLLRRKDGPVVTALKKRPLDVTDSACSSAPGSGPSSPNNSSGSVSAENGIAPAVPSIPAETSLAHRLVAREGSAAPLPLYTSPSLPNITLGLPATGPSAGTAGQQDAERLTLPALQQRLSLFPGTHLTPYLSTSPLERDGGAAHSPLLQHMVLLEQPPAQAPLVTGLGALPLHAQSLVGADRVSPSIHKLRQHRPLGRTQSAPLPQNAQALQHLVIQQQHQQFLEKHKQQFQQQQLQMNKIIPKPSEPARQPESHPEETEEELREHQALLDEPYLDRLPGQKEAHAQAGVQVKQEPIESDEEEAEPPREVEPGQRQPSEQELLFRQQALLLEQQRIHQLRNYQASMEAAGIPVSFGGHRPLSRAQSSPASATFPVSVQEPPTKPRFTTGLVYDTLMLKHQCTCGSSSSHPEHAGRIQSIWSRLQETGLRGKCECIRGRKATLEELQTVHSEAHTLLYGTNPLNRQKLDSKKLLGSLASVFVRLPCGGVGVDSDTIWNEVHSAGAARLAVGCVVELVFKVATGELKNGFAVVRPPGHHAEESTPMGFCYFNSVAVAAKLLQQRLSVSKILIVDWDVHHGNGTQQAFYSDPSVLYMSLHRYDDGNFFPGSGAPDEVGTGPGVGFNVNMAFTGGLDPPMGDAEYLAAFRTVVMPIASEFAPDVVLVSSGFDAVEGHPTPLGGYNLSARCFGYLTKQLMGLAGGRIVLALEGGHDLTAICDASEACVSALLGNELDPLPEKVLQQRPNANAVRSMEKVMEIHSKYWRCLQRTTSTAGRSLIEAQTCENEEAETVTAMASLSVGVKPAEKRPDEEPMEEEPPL

TMD8 [5] = experiment: In vivo antitumor activity against TMD8 cells xenografted in CB.17 SCID mouse assessed as inhibition of tumor growth at 50 mg/kg/day, po for 21 consecutive days measured every 3 days by Vernier caliper; type: functional, organism-based; conditions: Homo sapiens, time 21.0 day
TMD8 [6] = experiment: Induction of apoptosis in human TMD8 cells assessed as increase in cleaved caspase-3 levels at 2.5 to 10 uM after 24 hrs by Western blot analysis; type: functional, cell-based; conditions: dose 2.5-10 µM
[7] = target: Protein deacetylase HDAC6 (Homo sapiens) (UniProt Q9UBN7); experiment: Inhibition of HDAC6 (unknown origin) assessed as remaining enzyme activity at 1 uM using RHKK(Ac)AMC fluorogenic peptide as substrate preincubated for 10 mins followed by substrate addition for 1 hr in presence of ATP by fluoroscence based assay relative to control; conditions: time 70.0 min
Protein deacetylase HDAC6 (Homo sapiens), sequence (Q9UBN7 whole entry): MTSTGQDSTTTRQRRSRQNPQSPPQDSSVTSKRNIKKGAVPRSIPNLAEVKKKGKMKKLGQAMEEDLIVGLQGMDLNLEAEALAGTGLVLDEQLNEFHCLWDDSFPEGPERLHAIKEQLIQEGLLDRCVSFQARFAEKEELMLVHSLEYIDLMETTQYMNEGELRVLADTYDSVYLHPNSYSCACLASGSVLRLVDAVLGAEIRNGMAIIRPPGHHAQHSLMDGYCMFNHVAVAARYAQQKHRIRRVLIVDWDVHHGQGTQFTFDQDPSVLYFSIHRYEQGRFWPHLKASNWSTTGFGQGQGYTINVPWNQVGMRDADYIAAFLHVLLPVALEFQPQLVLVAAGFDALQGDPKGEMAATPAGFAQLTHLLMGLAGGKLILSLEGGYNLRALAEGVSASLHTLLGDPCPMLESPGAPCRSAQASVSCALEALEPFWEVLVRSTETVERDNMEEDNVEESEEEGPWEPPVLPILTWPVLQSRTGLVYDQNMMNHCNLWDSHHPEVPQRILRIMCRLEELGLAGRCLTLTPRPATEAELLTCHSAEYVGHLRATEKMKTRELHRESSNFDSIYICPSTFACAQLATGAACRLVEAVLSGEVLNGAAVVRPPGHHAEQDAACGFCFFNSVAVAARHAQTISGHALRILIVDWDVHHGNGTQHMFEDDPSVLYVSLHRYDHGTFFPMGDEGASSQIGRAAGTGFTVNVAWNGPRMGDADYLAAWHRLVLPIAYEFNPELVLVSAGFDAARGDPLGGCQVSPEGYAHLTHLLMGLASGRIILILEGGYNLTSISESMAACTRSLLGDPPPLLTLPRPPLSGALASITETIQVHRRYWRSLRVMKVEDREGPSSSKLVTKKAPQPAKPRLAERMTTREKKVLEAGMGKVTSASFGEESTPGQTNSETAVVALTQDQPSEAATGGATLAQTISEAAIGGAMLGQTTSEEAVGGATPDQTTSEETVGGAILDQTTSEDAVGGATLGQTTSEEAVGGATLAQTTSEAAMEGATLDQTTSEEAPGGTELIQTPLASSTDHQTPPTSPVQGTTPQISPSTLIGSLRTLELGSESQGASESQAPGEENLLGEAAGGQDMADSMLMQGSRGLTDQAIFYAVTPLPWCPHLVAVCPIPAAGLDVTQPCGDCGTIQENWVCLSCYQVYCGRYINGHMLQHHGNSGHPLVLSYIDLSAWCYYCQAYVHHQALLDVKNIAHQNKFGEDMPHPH

Mus musculus = experiment: Upregulation of acetylated-H3 levels in CB.17 SCID mouse xenografted with human TMD8 cells at 50 to 100 mg/kg/day, po measured after 21 days by Western blot analysis; type: functional, organism-based; conditions: dose 50-100 mg/kg/day, time 21.0 day
Histone deacetylase 3 [8] = target: T2, Histone deacetylase 3 (Homo sapiens, UniProt O15379); experiment: Inhibition of HDAC3 in human TMD8 cells assessed as histone H4 acetylation after 24 hrs by Western blot analysis; type: cell-based; conditions: dose 2.5-10 µM, DDE = dose-dependent effect
T2 sequence (O15379 whole entry): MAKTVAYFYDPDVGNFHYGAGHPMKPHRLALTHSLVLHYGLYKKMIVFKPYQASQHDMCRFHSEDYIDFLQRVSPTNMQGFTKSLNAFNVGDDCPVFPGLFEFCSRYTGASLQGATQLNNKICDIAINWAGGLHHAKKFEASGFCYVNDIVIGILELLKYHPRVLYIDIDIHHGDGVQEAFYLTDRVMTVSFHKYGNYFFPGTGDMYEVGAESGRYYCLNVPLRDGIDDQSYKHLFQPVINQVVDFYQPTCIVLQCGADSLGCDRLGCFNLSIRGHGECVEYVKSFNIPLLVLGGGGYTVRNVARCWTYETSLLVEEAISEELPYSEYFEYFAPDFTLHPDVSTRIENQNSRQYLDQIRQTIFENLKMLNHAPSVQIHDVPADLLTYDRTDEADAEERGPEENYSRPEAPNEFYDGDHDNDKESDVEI

[9] = target: Histone deacetylase 5 (Homo sapiens) (UniProt Q9UQL6); experiment: Inhibition of HDAC5 (unknown origin) assessed as remaining enzyme activity at 1 uM using Boc-(Trifluoroacetyl) Lysine-AMC fluorogenic peptide as substrate preincubated for 10 mins followed by substrate addition for 30 mins in presence of ATP by fluoroscence based assay relative to control; conditions: time 40.0 min
TMD8 [10] = experiment: Induction of apoptosis in human TMD8 cells incubated for 24 hrs by propidium iodide based flow cytometric analysis; type: functional, cell-based; conditions: dose 0.25-1 µM, DDE = dose-dependent effect
TMD8 [11] = experiment: Induction of apoptosis in human TMD8 cells assessed as increase in cleaved PARP levels at 2.5 to 10 uM after 24 hrs by Western blot analysis; type: functional, cell-based; conditions: dose 2.5-10 µM
[12] = target: Histone deacetylase 9 (Homo sapiens) (UniProt Q9UKV0); experiment: Inhibition of HDAC9 (unknown origin) assessed as remaining enzyme activity at 1 uM using Boc-(Trifluoroacetyl) Lysine-AMC fluorogenic peptide as substrate preincubated for 10 mins followed by substrate addition for 30 mins in presence of ATP by fluoroscence based assay relative to control; conditions: time 40.0 min
Histone deacetylase 9 (Homo sapiens), sequence (Q9UKV0 whole entry): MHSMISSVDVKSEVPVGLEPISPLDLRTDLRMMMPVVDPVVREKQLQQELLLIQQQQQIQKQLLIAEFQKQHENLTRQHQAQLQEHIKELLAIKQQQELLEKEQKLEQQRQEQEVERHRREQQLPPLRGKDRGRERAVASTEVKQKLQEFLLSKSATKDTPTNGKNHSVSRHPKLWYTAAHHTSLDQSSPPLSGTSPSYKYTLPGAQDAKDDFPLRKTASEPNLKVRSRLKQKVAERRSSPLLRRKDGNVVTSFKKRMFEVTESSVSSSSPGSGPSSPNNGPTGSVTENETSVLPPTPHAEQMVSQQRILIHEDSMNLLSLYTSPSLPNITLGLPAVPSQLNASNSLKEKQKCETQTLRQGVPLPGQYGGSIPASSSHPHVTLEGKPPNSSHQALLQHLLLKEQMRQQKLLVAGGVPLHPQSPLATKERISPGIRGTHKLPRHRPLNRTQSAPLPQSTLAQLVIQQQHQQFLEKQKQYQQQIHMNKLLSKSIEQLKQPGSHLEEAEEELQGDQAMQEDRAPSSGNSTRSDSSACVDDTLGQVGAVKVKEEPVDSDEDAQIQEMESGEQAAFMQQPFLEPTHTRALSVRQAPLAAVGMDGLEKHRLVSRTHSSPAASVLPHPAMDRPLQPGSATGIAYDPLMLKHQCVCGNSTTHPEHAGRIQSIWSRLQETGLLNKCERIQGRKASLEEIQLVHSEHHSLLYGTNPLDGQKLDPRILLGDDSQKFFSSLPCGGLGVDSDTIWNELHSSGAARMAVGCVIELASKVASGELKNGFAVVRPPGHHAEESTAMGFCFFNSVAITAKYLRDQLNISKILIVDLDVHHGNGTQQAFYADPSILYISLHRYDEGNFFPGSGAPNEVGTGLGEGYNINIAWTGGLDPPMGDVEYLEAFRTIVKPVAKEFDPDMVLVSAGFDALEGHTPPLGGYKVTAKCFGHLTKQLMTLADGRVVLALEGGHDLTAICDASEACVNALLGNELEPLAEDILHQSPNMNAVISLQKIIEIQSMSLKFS

[13] = target: Histone deacetylase 7 (Homo sapiens) (UniProt Q8WUI4); experiment: Inhibition of HDAC7 (unknown origin) assessed as remaining enzyme activity at 1 uM using Boc-(Trifluoroacetyl) Lysine-AMC fluorogenic peptide as substrate preincubated for 10 mins followed by substrate addition for 30 mins in presence of ATP by fluoroscence based assay relative to control; conditions: time 40.0 min
TMD8 [14] = experiment: Induction of cell cycle arrest in human TMD8 cells assessed as accumulation of cells at G2/M phase incubated for 24 hrs by propidium iodide based flow cytometric analysis; type: functional; conditions: dose 0.25-1 µM, DDE = dose-dependent effect
Histone deacetylase 1 [15] = target: T3, Histone deacetylase 1 (Homo sapiens, UniProt Q13547); experiment: Inhibition of HDAC1 in human TMD8 cells assessed as histone H3 acetylation after 24 hrs by Western blot analysis; type: cell-based; conditions: dose 2.5-10 µM, DDE = dose-dependent effect
T3 sequence (Q13547 whole entry): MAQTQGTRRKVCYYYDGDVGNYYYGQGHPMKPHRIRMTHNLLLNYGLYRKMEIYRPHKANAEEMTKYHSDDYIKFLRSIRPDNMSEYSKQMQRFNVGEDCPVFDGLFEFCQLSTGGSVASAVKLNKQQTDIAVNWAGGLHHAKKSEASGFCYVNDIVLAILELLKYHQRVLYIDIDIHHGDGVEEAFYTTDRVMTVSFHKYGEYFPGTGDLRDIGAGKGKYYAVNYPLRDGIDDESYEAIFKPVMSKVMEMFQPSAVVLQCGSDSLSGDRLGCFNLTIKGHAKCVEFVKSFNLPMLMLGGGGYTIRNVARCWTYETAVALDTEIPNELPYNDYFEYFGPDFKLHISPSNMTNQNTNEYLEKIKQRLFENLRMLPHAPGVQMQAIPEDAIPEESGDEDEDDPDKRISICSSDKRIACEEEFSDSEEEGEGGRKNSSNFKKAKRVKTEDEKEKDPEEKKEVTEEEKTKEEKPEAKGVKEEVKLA

Histone deacetylase 2 [16] = target: T1, Histone deacetylase 2; experiment: Inhibition of HDAC2 in human TMD8 cells assessed as histone H4 acetylation after 24 hrs by Western blot analysis; type: cell-based; conditions: dose 2.5-10 µM, DDE = dose-dependent effect
Histone deacetylase 3 [17] = target: T2, Histone deacetylase 3; experiment: Inhibition of HDAC3 in human TMD8 cells assessed as histone H3 acetylation after 24 hrs by Western blot analysis; type: cell-based; conditions: dose 2.5-10 µM, DDE = dose-dependent effect
DLBCL = experiment: Cytotoxicity against human DLBCL cells assessed as cell growth inhibition; type: functional, cell-based
Histone deacetylase 1 [18] = target: T3, Histone deacetylase 1; experiment: Inhibition of HDAC1 in human TMD8 cells assessed as histone H4 acetylation after 24 hrs by Western blot analysis; type: cell-based; conditions: dose 2.5-10 µM, DDE = dose-dependent effect

## Nc1ccccc1NC(=O)c1ccc(CN2CCC/C(=C\c3ccccn3)C2=O)cc1
Histone deacetylase 2 [1]
  inhibition: Dde
[2]
  Activity: 92%
TMD8 [3]
  Activity: Active
[4]
  Activity: 81.2%
TMD8 [5]
  Activity: Active
TMD8 [6]
  Activity: Active
[7]
  Activity: 96.9%
Mus musculus
  Activity: Active
Histone deacetylase 3 [8]
  inhibition: Dde
[9]
  Activity: 84.4%
TMD8 [10]
  Activity: Dde
TMD8 [11]
  Activity: Active
[12]
  Activity: 92.3%
[13]
  Activity: 88.1%
TMD8 [14]
  Activity: Dde
Histone deacetylase 1 [15]
  inhibition: Dde
Histone deacetylase 2 [16]
  inhibition: Dde
Histone deacetylase 3 [17]
  inhibition: Dde
DLBCL
  Activity: Active
Histone deacetylase 1 [18]
  inhibition: Dde
